Test results from PubChem BioAssay AID1919007 (Molecular Pharmacology Branch, DTP, NCI, 2023).
“And” between values parts separate entries of the source, which are not always exact repeats. Equal values may be shown once.

Test system: A498 complex spheroids with HUVEC/MSC, growth
Assay: Anticancer human tumor A498 cell line growth inhibition [AhR];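 further: seven day exposure starting three days after spheroid seeding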;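 on viability, T/C: luminescence signal used as a surrogate for viable cells; luminescence viability scaled so 100% equals DMSO vehicle wells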
Details: for viability, T/C: stronger effect = lower value
How it was run: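 Agents were dosed in half-log steps down from roughly clinical Cmax, or from 10 microM where Cmax was unknown, alone and with AhR antagonists. Read-out: percent test/control growth of tumor spheroids containing HUVEC and MSC stromal cells.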

[1] = curve of first compound, second compound 0.1 µM
[2] = curve of first compound, second compound 0.316 µM
[3] = curve of first compound, second compound 1 µM
[4] = curve of first compound, second compound 3.16 µM
[5] = curve of first compound, second compound 10 µM
[6] = second compound 0.1 µM, first compound 0.0316 µM
[7] = second compound 0.1 µM, first compound 0.1 µM
[8] = second compound 0.1 µM, first compound 0.316 µM
[9] = second compound 0.1 µM, first compound 1 µM
[10] = second compound 0.1 µM, first compound 3.16 µM
[11] = second compound 0.1 µM, first compound 10 µM
[12] = second compound 0.316 µM, first compound 0.0316 µM
[13] = second compound 0.316 µM, first compound 0.1 µM
[14] = second compound 0.316 µM, first compound 0.316 µM
[15] = second compound 0.316 µM, first compound 1 µM
[16] = second compound 0.316 µM, first compound 3.16 µM
[17] = second compound 0.316 µM, first compound 10 µM
[18] = second compound 1 µM, first compound 0.0316 µM
[19] = second compound 1 µM, first compound 0.1 µM
[20] = second compound 1 µM, first compound 0.316 µM
[21] = second compound 1 µM, first compound 1 µM
[22] = second compound 1 µM, first compound 3.16 µM
[23] = second compound 1 µM, first compound 10 µM
[24] = second compound 3.16 µM, first compound 0.0316 µM
[25] = second compound 3.16 µM, first compound 0.1 µM
[26] = second compound 3.16 µM, first compound 0.316 µM
[27] = second compound 3.16 µM, first compound 1 µM
[28] = second compound 3.16 µM, first compound 3.16 µM
[29] = second compound 3.16 µM, first compound 10 µM
[30] = second compound 10 µM, first compound 0.0316 µM
[31] = second compound 10 µM, first compound 0.1 µM
[32] = second compound 10 µM, first compound 0.316 µM
[33] = second compound 10 µM, first compound 1 µM
[34] = second compound 10 µM, first compound 3.16 µM
[35] = second compound 10 µM, first compound 10 µM
[36] = second compound 0.1 µM, first compound 0.00316 µM
[37] = second compound 0.1 µM, first compound 0.01 µM
[38] = second compound 0.316 µM, first compound 0.00316 µM
[39] = second compound 0.316 µM, first compound 0.01 µM
[40] = second compound 1 µM, first compound 0.00316 µM
[41] = second compound 1 µM, first compound 0.01 µM
[42] = second compound 3.16 µM, first compound 0.00316 µM
[43] = second compound 3.16 µM, first compound 0.01 µM
[44] = second compound 10 µM, first compound 0.00316 µM
[45] = second compound 10 µM, first compound 0.01 µM

SMILES	IC50 [1] [nM]	IC50 [2] [nM]	IC50 [3] [nM]	IC50 [4] [nM]	IC50 [5] [nM]	viability, T/C [6] [%]	viability, T/C [7] [%]	viability, T/C [8] [%]	viability, T/C [9] [%]	viability, T/C [12] [%]	viability, T/C [13] [%]	viability, T/C [14] [%]	viability, T/C [15] [%]	viability, T/C [18] [%]	viability, T/C [19] [%]	viability, T/C [20] [%]	viability, T/C [21] [%]	viability, T/C [24] [%]	viability, T/C [25] [%]	viability, T/C [26] [%]	also measured
CC1COCCN1c1cc(C2(S(C)(=N)=O)CC2)nc(-c2ccnc3[nH]ccc23)n1 (configuration not stated) + Cc1ccccc1N=Nc1ccc(NC(=O)c2ccnn2C)c(C)c1	2510	2070	1820	1880	2030	84.6	85.4	84.3	66	101	90.5	88.3	68.1	81.7	78.2	82.2	61.7	83	82.4	77.2	viability, T/C [10]: 46.6%; viability, T/C [11]: 23.2%; viability, T/C [16]: 38.9%; viability, T/C [17]: 25.7%; viability, T/C [22]: 38.2%; viability, T/C [23]: 21.2%; viability, T/C [27]: 64%; viability, T/C [28]: 38.5%; viability, T/C [29]: 24.2%; viability, T/C [30]: 82.6%; viability, T/C [31]: 81.5%; viability, T/C [32]: 78.7%; viability, T/C [33]: 67.8%; viability, T/C [34]: 39%; viability, T/C [35]: 25%
Nc1ncn(C2CC(O)C(CO)O2)c(=O)n1 (configuration not stated) + Cc1ccccc1N=Nc1ccc(NC(=O)c2ccnn2C)c(C)c1	> 1000	> 1000	> 1000	> 1000	> 1000	88.8	93.6	86.2	77.1	97.4	84	78.5	76.1	84.4	74.9	74.6	70.6	85.8	73.9	80	viability, T/C [36]: 88.8%; viability, T/C [37]: 91.7%; viability, T/C [38]: 97%; viability, T/C [39]: 97.5%; viability, T/C [40]: 81.2%; viability, T/C [41]: 87.3%; viability, T/C [42]: 84.9%; viability, T/C [43]: 87.2%; viability, T/C [27]: 64%; viability, T/C [44]: 90.7%; viability, T/C [45]: 86.7%; viability, T/C [30]: 76.9%; viability, T/C [31]: 85.3%; viability, T/C [32]: 74.8%; viability, T/C [33]: 68%
Nc1ncn(C2CC(O)C(CO)O2)c(=O)n1 (configuration not stated) + Cc1cncc(-c2nc(NCCc3c[nH]c4ccccc34)c3ncn(C(C)C)c3n2)c1	> 1000	> 1000	> 1000	> 1000	< 3.16	88.5	85.4	75	70.1	92.5	88.5	83.2	81.9	85	79.8	81	76	71.1	60.6	62.8	viability, T/C [36]: 83.2%; viability, T/C [37]: 93.2%; viability, T/C [38]: 90.3%; viability, T/C [39]: 94.5%; viability, T/C [40]: 85.4%; viability, T/C [41]: 86.4%; viability, T/C [42]: 61.5%; viability, T/C [43]: 65.8%; viability, T/C [27]: 63.4%; viability, T/C [44]: 4.02%; viability, T/C [45]: 3.97%; viability, T/C [30]: 6.07%; viability, T/C [31]: 3.94%; viability, T/C [32]: 4.34%; viability, T/C [33]: 4.63%
COc1cccc2c1C(=O)c1c(O)c3c(c(O)c1C2=O)CC(O)(C(=O)CO)CC3OC1CC(N)C(O)C(C)O1 (configuration not stated) + Cc1cncc(-c2nc(NCCc3c[nH]c4ccccc34)c3ncn(C(C)C)c3n2)c1	266	380	175	< 31.6	< 31.6	64.7	57.1	48.8	20.3	61.1	65.6	56.3	15.4	58.6	55.9	43.1	10.3	48.8	50.7	37.7	viability, T/C [10]: 1.26%; viability, T/C [11]: 0.76%; viability, T/C [16]: 1.1%; viability, T/C [17]: 0.72%; viability, T/C [22]: 1.14%; viability, T/C [23]: 0.7%; viability, T/C [27]: 2.21%; viability, T/C [28]: 1.26%; viability, T/C [29]: 0.84%; viability, T/C [30]: 5.86%; viability, T/C [31]: 6.1%; viability, T/C [32]: 9.17%; viability, T/C [33]: 0.29%; viability, T/C [34]: 0.94%; viability, T/C [35]: 0.55%
CC1COCCN1c1cc(C2(S(C)(=N)=O)CC2)nc(-c2ccnc3[nH]ccc23)n1 (configuration not stated)	–	–	–	–	–	–	–	–	–	–	–	–	–	–	–	–	–	–	–	–	viability, T/C (compound 0.0316 µM): 106% and 101% (2×); viability, T/C (compound 0.1 µM): 111% and 103% and 107%; viability, T/C (compound 0.316 µM): 104% and 99.8% and 95.7%; viability, T/C (compound 1 µM): 92.2% and 72.5% and 72.7%; viability, T/C (compound 3.16 µM): 61% and 46.5% and 37%; viability, T/C (compound 10 µM): 29% and 24.8% and 19.5%; IC50 (curve of compound): 4680 nM and 2570 nM and 2070 nM
